{"source": "patent US20240132431A1", "about": "“METHOD FOR ALKYLATING ACIDIC FUNCTIONAL GROUP” (Chugai Seiyaku Kabushiki Kaisha, priority 2021, published 2024)", "target": "T1, Bcl-2 protein (Recombinant Human Bcl-2 Protein) (Homo sapiens, UniProt P10415)", "T1 construct": "purchased Novus NBP2-34889", "T1 sequence (P10415 whole entry)": "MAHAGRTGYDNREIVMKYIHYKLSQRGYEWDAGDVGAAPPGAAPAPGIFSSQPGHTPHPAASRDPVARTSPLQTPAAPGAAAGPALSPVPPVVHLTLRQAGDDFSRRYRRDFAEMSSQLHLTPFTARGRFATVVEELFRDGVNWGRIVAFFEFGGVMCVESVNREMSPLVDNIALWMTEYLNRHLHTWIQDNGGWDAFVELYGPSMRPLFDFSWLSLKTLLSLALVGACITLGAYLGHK", "assay": "Binding evaluation of mixture library compounds to Bcl-2 using AS-MS (affinity selection mass spectrometry)", "settings": "AS-MS, mixture of 1200 compounds, Bcl-2, ASMS Ratio(%)=(A−C)/B×100; for ASMS ratio (%) n = 1: replicate n = 1; for ASMS ratio (%) n = 2: replicate n = 2", "how_it_was_run": "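Bcl-2 binding is scored from LC/MS signal retained with protein through gel-filtration spin columns, normalised to unfiltered and protein-free controls. Incubation: 20 μM protein, […] per compound, 1 h, 23° C.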", "data": [{"compound": "CCOc1cccc(-c2csc(CN3CCN(c4ccc(C(=O)NCC(F)(F)F)cc4)CC3)c2)c1", "note": "[B1K067-01, 4-[4-[[4-(3-Ethoxyphenyl)thiophen-2-yl]methyl]piperazin-1-yl]-N-(2,2,2-trifluoroethyl)benzamide]", "values": [{"measurement": "ASMS ratio (%) n = 1", "result": 5.1, "unit": "%"}, {"measurement": "ASMS ratio (%) n = 2", "result": 1.8, "unit": "%"}]}, {"compound": "CCOc1cncc(-c2csc(CN3CCN(c4ccc(C(=O)NCC(F)(F)F)cc4)CC3)c2)c1", "note": "[B1K068-01, 4-[4-[[4-(5-Ethoxypyridin-3-yl)thiophen-2-yl]methyl]piperazin-1-yl]-N-(2,2,2-trifluoroethyl)benzamide]", "values": [{"measurement": "ASMS ratio (%) n = 1", "result": 2.6, "unit": "%"}, {"measurement": "ASMS ratio (%) n = 2", "result": "−1.4", "unit": "%"}]}, {"compound": "CCOc1cccc(C#Cc2ccccc2CN2CCN(c3ccc(C(=O)NCC(F)(F)F)cc3)CC2)c1", "note": "[B1K069-01, 4-[4-[[2-[2-(3-Ethoxyphenyl)ethynyl]phenyl]methyl]piperazin-1-yl]-N-(2,2,2-trifluoroethyl)benzamide]", "values": [{"measurement": "ASMS ratio (%) n = 1", "result": 3.5, "unit": "%"}, {"measurement": "ASMS ratio (%) n = 2", "result": "−1.4", "unit": "%"}]}, {"compound": "CCOc1cncc(C#Cc2ccccc2CN2CCN(c3ccc(C(=O)NCC(F)(F)F)cc3)CC2)c1", "note": "[B1K070-01, 4-[4-[[2-[2-(5-Ethoxypyridin-3-yl)ethynyl]phenyl]methyl]piperazin-1-yl]-N-(2,2,2-trifluoroethyl)benzamide]", "values": [{"measurement": "ASMS ratio (%) n = 1", "result": 0.0, "unit": "%"}, {"measurement": "ASMS ratio (%) n = 2", "result": 0.0, "unit": "%"}]}, {"compound": "CCOc1cccc(-c2ccccc2CN2CCN(c3ccc(C(=O)NCC(F)(F)F)nn3)CC2)c1", "note": "[B1K071-01, 6-[4-[[2-(3-Ethoxyphenyl)phenyl]methyl]piperazin-1-yl]-N-(2,2,2-trifluoroethyl)pyridazine-3-carboxamide]", "values": [{"measurement": "ASMS ratio (%) n = 1", "result": 1.6, "unit": "%"}, {"measurement": "ASMS ratio (%) n = 2", "result": "−0.9", "unit": "%"}]}, {"compound": "CCOc1cncc(-c2ccccc2CN2CCN(c3ccc(C(=O)NCC(F)(F)F)nn3)CC2)c1", "note": "[B1K072-01, 6-[4-[[2-(5-Ethoxypyridin-3-yl)phenyl]methyl]piperazin-1-yl]-N-(2,2,2-trifluoroethyl)pyridazine-3-carboxamide]", "values": [{"measurement": "ASMS ratio (%) n = 1", "result": "−0.6", "unit": "%"}, {"measurement": "ASMS ratio (%) n = 2", "result": 1.7, "unit": "%"}]}, {"compound": "CCOc1cccc(-c2ccc(CN3CCN(c4ccc(C(=O)NCC(F)(F)F)nn4)CC3)cc2C)c1", "note": "[B1K073-01, 6-[4-[[4-(3-Ethoxyphenyl)-3-methylphenyl]methyl]piperazin-1-yl]-N-(2,2,2-trifluoroethyl)pyridazine-3-carboxamide]", "values": [{"measurement": "ASMS ratio (%) n = 1", "result": 3.1, "unit": "%"}, {"measurement": "ASMS ratio (%) n = 2", "result": "−1.9", "unit": "%"}]}, {"compound": "CCOc1cncc(-c2ccc(CN3CCN(c4ccc(C(=O)NCC(F)(F)F)nn4)CC3)cc2C)c1", "note": "[B1K074-01, 6-[4-[[4-(5-Ethoxypyridin-3-yl)-3-methylphenyl]methyl]piperazin-1-yl]-N-(2,2,2-trifluoroethyl)pyridazine-3-carboxamide]", "values": [{"measurement": "ASMS ratio (%) n = 1", "result": 0.0, "unit": "%"}, {"measurement": "ASMS ratio (%) n = 2", "result": 0.0, "unit": "%"}]}, {"compound": "CCOc1cccc(-c2ccc(CN3CCN(c4ccc(C(=O)NCC(F)(F)F)nn4)CC3)c(CC)c2)c1", "note": "[B1K075-01, 6-[4-[[4-(3-Ethoxyphenyl)-2-ethylphenyl]methyl]piperazin-1-yl]-N-(2,2,2-trifluoroethyl)pyridazine-3-carboxamide]", "values": [{"measurement": "ASMS ratio (%) n = 1", "result": 1.4, "unit": "%"}, {"measurement": "ASMS ratio (%) n = 2", "result": "−3.8", "unit": "%"}]}, {"compound": "CCOc1cncc(-c2ccc(CN3CCN(c4ccc(C(=O)NCC(F)(F)F)nn4)CC3)c(CC)c2)c1", "note": "[B1K076-01, 6-[4-[[4-(5-Ethoxypyridin-3-yl)-2-ethylphenyl]methyl]piperazin-1-yl]-N-(2,2,2-trifluoroethyl)pyridazine-3-carboxamide]", "values": [{"measurement": "ASMS ratio (%) n = 2", "result": 0.0, "unit": "%"}]}, {"compound": "CCOc1cccc(-c2ccc(CN3CCN(c4ccc(C(=O)NCC(F)(F)F)nn4)CC3)cc2F)c1", "note": "[B1K077-01, 6-[4-[[4-(3-Ethoxyphenyl)-3-fluorophenyl]methyl]piperazin-1-yl]-N-(2,2,2-trifluoroethyl)pyridazine-3-carboxamide]", "values": [{"measurement": "ASMS ratio (%) n = 1", "result": 2.4, "unit": "%"}, {"measurement": "ASMS ratio (%) n = 2", "result": "−0.2", "unit": "%"}]}, {"compound": "CCOc1cncc(-c2ccc(CN3CCN(c4ccc(C(=O)NCC(F)(F)F)nn4)CC3)cc2F)c1", "note": "[B1K078-01, 6-[4-[[4-(5-Ethoxypyridin-3-yl)-3-fluorophenyl]methyl]piperazin-1-yl]-N-(2,2,2-trifluoroethyl)pyridazine-3-carboxamide]", "values": [{"measurement": "ASMS ratio (%) n = 1", "result": 0.8, "unit": "%"}, {"measurement": "ASMS ratio (%) n = 2", "result": "−0.2", "unit": "%"}]}, {"compound": "CCOc1cccc(-c2ccc(CN3CCN(c4ccc(C(=O)NCC(F)(F)F)nn4)CC3)c(OC)c2)c1", "note": "[B1K079-01, 6-[4-[[4-(3-Ethoxyphenyl)-2-methoxyphenyl]methyl]piperazin-1-yl]-N-(2,2,2-trifluoroethyl)pyridazine-3-carboxamide]", "values": [{"measurement": "ASMS ratio (%) n = 1", "result": 2.2, "unit": "%"}, {"measurement": "ASMS ratio (%) n = 2", "result": "−1.3", "unit": "%"}]}, {"compound": "CCOc1cncc(-c2ccc(CN3CCN(c4ccc(C(=O)NCC(F)(F)F)nn4)CC3)c(OC)c2)c1", "note": "[B1K080-01, 6-[4-[[4-(5-Ethoxypyridin-3-yl)-2-methoxyphenyl]methyl]piperazin-1-yl]-N-(2,2,2-trifluoroethyl)pyridazine-3-carboxamide]", "values": [{"measurement": "ASMS ratio (%) n = 1", "result": 0.0, "unit": "%"}, {"measurement": "ASMS ratio (%) n = 2", "result": 0.0, "unit": "%"}]}, {"compound": "CCOc1cccc(-c2cc(CN3CCN(c4ccc(C(=O)NCC(F)(F)F)nn4)CC3)cc(OCC)c2)c1", "note": "[B1K081-01, 6-[4-[[3-Ethoxy-5-(3-ethoxyphenyl)phenyl]methyl]piperazin-1-yl]-N-(2,2,2-trifluoroethyl)pyridazine-3-carboxamide]", "values": [{"measurement": "ASMS ratio (%) n = 1", "result": 2.3, "unit": "%"}, {"measurement": "ASMS ratio (%) n = 2", "result": "−0.4", "unit": "%"}]}, {"compound": "CCOc1cncc(-c2cc(CN3CCN(c4ccc(C(=O)NCC(F)(F)F)nn4)CC3)cc(OCC)c2)c1", "note": "[B1K082-01, 6-[4-[[3-Ethoxy-5-(5-ethoxypyridin-3-yl)phenyl]methyl]piperazin-1-yl]-N-(2,2,2-trifluoroethyl)pyridazine-3-carboxamide]", "values": [{"measurement": "ASMS ratio (%) n = 1", "result": 0.0, "unit": "%"}, {"measurement": "ASMS ratio (%) n = 2", "result": 0.0, "unit": "%"}]}, {"compound": "CCOc1cccc(-c2cc(CN3CCN(c4ccc(C(=O)NCC(F)(F)F)nn4)CC3)cc(OC(C)C)c2)c1", "note": "[B1K083-01]", "values": [{"measurement": "ASMS ratio (%) n = 1", "result": 0.0, "unit": "%"}, {"measurement": "ASMS ratio (%) n = 2", "result": 0.0, "unit": "%"}]}, {"compound": "CCOc1cncc(-c2cc(CN3CCN(c4ccc(C(=O)NCC(F)(F)F)nn4)CC3)cc(OC(C)C)c2)c1", "note": "[B1K084-01, 6-[4-[[3-(5-Ethoxypyridin-3-yl)-5-propan-2-yloxyphenyl]methyl]piperazin-1-yl]-N-(2,2,2-trifluoroethyl)pyridazine-3-carboxamide]", "values": [{"measurement": "ASMS ratio (%) n = 1", "result": 0.0, "unit": "%"}, {"measurement": "ASMS ratio (%) n = 2", "result": 0.0, "unit": "%"}]}, {"compound": "CCOc1cccc(-c2cc(OC)c(CN3CCN(c4ccc(C(=O)NCC(F)(F)F)nn4)CC3)c(OC)c2)c1", "note": "[B1K085-01]", "values": [{"measurement": "ASMS ratio (%) n = 1", "result": 4.2, "unit": "%"}, {"measurement": "ASMS ratio (%) n = 2", "result": "−0.2", "unit": "%"}]}, {"compound": "CCOc1cncc(-c2cc(OC)c(CN3CCN(c4ccc(C(=O)NCC(F)(F)F)nn4)CC3)c(OC)c2)c1", "note": "[B1K086-01, 6-[4-[[4-(5-Ethoxypyridin-3-yl)-2,6-dimethoxyphenyl]methyl]piperazin-1-yl]-N-(2,2,2-trifluoroethyl)pyridazine-3-carboxamide]", "values": [{"measurement": "ASMS ratio (%) n = 2", "result": 0.0, "unit": "%"}]}, {"compound": "CCOc1cccc(-c2cc(CN3CCN(c4ccc(C(=O)NCC(F)(F)F)nn4)CC3)cc(C(F)(F)F)c2)c1", "note": "[B1K087-01]", "values": [{"measurement": "ASMS ratio (%) n = 1", "result": 1.8, "unit": "%"}, {"measurement": "ASMS ratio (%) n = 2", "result": "−0.1", "unit": "%"}]}, {"compound": "CCOc1cncc(-c2cc(CN3CCN(c4ccc(C(=O)NCC(F)(F)F)nn4)CC3)cc(C(F)(F)F)c2)c1", "note": "[B1K088-01, 6-[4-[[3-(5-Ethoxypyridin-3-yl)-5-(trifluoromethyl)phenyl]methyl]piperazin-1-yl]-N-(2,2,2-trifluoroethyl)pyridazine-3-carboxamide]", "values": [{"measurement": "ASMS ratio (%) n = 1", "result": 2.2, "unit": "%"}, {"measurement": "ASMS ratio (%) n = 2", "result": "−0.2", "unit": "%"}]}, {"compound": "CCOc1cccc(-c2cc(CN3CCN(c4ccc(C(=O)NCC(F)(F)F)nn4)CC3)cc(OC(F)(F)F)c2)c1", "note": "[B1K089-01, 6-[4-[[3-(3-Ethoxyphenyl)-5-(trifluoromethoxy)phenyl]methyl]piperazin-1-yl]-N-(2,2,2-trifluoroethyl)pyridazine-3-carboxamide]", "values": [{"measurement": "ASMS ratio (%) n = 1", "result": 2.0, "unit": "%"}, {"measurement": "ASMS ratio (%) n = 2", "result": 1.0, "unit": "%"}]}, {"compound": "CCOc1cncc(-c2cc(CN3CCN(c4ccc(C(=O)NCC(F)(F)F)nn4)CC3)cc(OC(F)(F)F)c2)c1", "note": "[B1K090-01, 6-[4-[[3-(5-Ethoxypyridin-3-yl)-5-(trifluoromethoxy)phenyl]methyl]piperazin-1-yl]-N-(2,2,2-trifluoroethyl)pyridazine-3-carboxamide]", "values": [{"measurement": "ASMS ratio (%) n = 1", "result": "−0.6", "unit": "%"}, {"measurement": "ASMS ratio (%) n = 2", "result": "−1.9", "unit": "%"}]}, {"compound": "CCOc1cccc(-c2ccc(CN3CCN(c4ccc(C(=O)NCC(F)(F)F)nn4)CC3)c3ccccc23)c1", "note": "[B1K091-01, 6-[4-[[4-(3-Ethoxyphenyl)naphthalen-1-yl]methyl]piperazin-1-yl]-N-(2,2,2-trifluoroethyl)pyridazine-3-carboxamide]", "values": [{"measurement": "ASMS ratio (%) n = 1", "result": 3.6, "unit": "%"}, {"measurement": "ASMS ratio (%) n = 2", "result": "−4.2", "unit": "%"}]}, {"compound": "CCOc1cncc(-c2ccc(CN3CCN(c4ccc(C(=O)NCC(F)(F)F)nn4)CC3)c3ccccc23)c1", "note": "[B1K092-01, 6-[4-[[4-(5-Ethoxypyridin-3-yl)naphthalen-1-yl]methyl]piperazin-1-yl]-N-(2,2,2-trifluoroethyl)pyridazine-3-carboxamide]", "values": [{"measurement": "ASMS ratio (%) n = 1", "result": 4.1, "unit": "%"}, {"measurement": "ASMS ratio (%) n = 2", "result": "−0.7", "unit": "%"}]}, {"compound": "CCOc1cccc(-c2csc(CN3CCN(c4ccc(C(=O)NCC(F)(F)F)nn4)CC3)c2)c1", "note": "[B1K093-01, 6-[4-[[4-(3-Ethoxyphenyl)thiophen-2-yl]methyl]piperazin-1-yl]-N-(2,2,2-trifluoroethyl)pyridazine-3-carboxamide]", "values": [{"measurement": "ASMS ratio (%) n = 1", "result": 2.7, "unit": "%"}, {"measurement": "ASMS ratio (%) n = 2", "result": "−0.4", "unit": "%"}]}]}
